Source: patent US20120022054A1, “NOVEL SUBSTITUTED ARYL DERIVATIVES, THEIR PROCESS OF PREPARATION AND THEIR THERAPEUTICAL USES AS ANTI-HIV AGENTS” (priority 2008, published 2012)

Tests used:
[1] = system: Env-deleted NL4-3 vector virus pseudotyped with the VSV g envelope; test: microbe, parasite or virus in culture; format: cell-based, HIV-1; conditions: Vesicular stomatitis virus, NL43, SUP-T1, 48 h, read-out: EC50 for antiviral activity (50% inhibition of luciferase activity)
NL4-3 strain of HIV-1 = test: Multiple cycle infection assay of CAp24 antigen production; format: cell-based; conditions: Human immunodeficiency virus 1, NL43, SUP-T1, 96 h, multiple cycle infection with NL4-3 virus, SupT1, MT4 or PBMC, MOI 0.01, day 4 and day −6 post-infection; threshold below 5 μM; read-out: EC50 for antiviral activity (50% inhibition of CA p24 production)

Row | SMILES | EC50 [1] [µM] | EC50 (NL4-3 strain of HIV-1) [µM]
1 | CN(Cc1ccccc1C(F)(F)F)C(=O)CCCSc1ccc(O)cc1 [Example 15, 4-[(4-Hydroxyphenyl)thio]-N-methyl-N-[2-(trifluoromethyl)benzyl]butanamide] | < 5 | < 5
2 | COc1ccccc1CN(C)C(=O)CCCSc1ccc2ccccc2c1 [Example 17, N-(2-Methoxybenzyl)-N-methyl-4-(2-naphthylthio)butanamide] | < 5 | < 5
3 | COc1ccccc1CN(C)C(=O)CCCCc1ccc(O)cc1 [Example 19, 5-(4-Hydroxyphenyl)-N-(2-methoxybenzyl)-N-methylpentanamide] | < 5 | < 5
4 | COc1ccccc1CN(C)C(=O)CCCSc1ccc(NC(C)=O)cc1 [Example 20, 4-{[4-(Acetylamino)phenyl]thio}-N-(2-methoxybenzyl)-N-methylbutanamide] | < 5 | < 5
5 | CN(Cc1cccc2c1OCC2)C(=O)CCCSc1ccc(O)cc1 [Example 22, N-(2,3-Dihydro-1-benzofuran-7-ylmethyl)-4-[(4-hydroxyphenyl)thio]-N-methylbutanamide] | < 5 | < 5
6 | COc1ccccc1CN(C)C(=O)CCCSc1cccc(O)c1 [Example 26, 4-[(3-hydroxyphenyl)thio]-N-(2-methoxybenzyl)-N-methylbutanamide] | < 5 | < 5
7 | CN(Cc1ccccc1OC(F)(F)F)C(=O)CCCSc1ccc(O)cc1 [Example 27, 4-[(4-hydroxyphenyl)thio]-N-methyl-N-[2-(trifluoromethoxy)benzyl]butanamide] | < 5 | < 5
8 | COc1cccc(CN(C)C(=O)CCCSc2ccc(O)cc2)c1OC [Example 29, N-(2,3-dimethoxybenzyl)-4-[(4-hydroxyphenyl)thio]-N-methylbutanamide] | < 5 | < 5
9 | CCOc1ccccc1CN(C)C(=O)CCCSc1ccc(O)cc1 [Example 30, N-(2-ethoxybenzyl)-4-[(4-hydroxyphenyl)thio]-N-methylbutanamide] | < 5 | < 5
10 | CN(Cc1c(F)cccc1Cl)C(=O)CCCSc1ccc(O)cc1 [Example 31, N-(2-chloro-6-fluorobenzyl)-4-[(4-hydroxyphenyl)thio]-N-methylbutanamide] | < 5 | < 5
11 | CN(Cc1cccc(Cl)c1Cl)C(=O)CCCSc1ccc(O)cc1 [Example 34, N-(2,3-Dichlorobenzyl)-4-[(4-hydroxyphenyl)thio]-N-methylbutanamide] | < 5 | < 5
12 | COc1ccccc1CN(C)C(=O)CCCSc1ccc(O)cc1 [Example 35, 4-[(4-Hydroxyphenyl)thio]-N-(2-methoxybenzyl)-N-methylbutanamide] | < 5 | < 5
13 | Cc1ccccc1CN(C)C(=O)CCCSc1ccc(O)cc1 [Example 37, 4-[(4-Hydroxyphenyl)thio]-N-methyl-N-(2-methylbenzyl)butanamide] | < 5 | < 5
14 | COc1ccccc1CN(C)C(=O)CCCSc1ccc2ccccc2n1 [Example 39, N-(2-Methoxybenzyl)-N-methyl-4-(quinolin-2-ylthio)butanamide] | < 5 | < 5
15 | CC(C)Oc1ccccc1CN(C)C(=O)CCCSc1ccc(O)cc1 [Example 41, 4-[(4-Hydroxyphenyl)thio]-N-(2-isopropoxybenzyl)-N-methylbutanamide] | < 5 | < 5
16 | COc1ccc(SCCCC(=O)N(C)Cc2ccccc2OC)cc1 [Example 42, N-(2-Methoxybenzyl)-4-[(4-methoxyphenyl)thio]-N-methylbutanamide] | < 5 | < 5
17 | CCOC(=O)N1CCN(c2ccccc2CN(C)C(=O)CCCSc2ccc(O)cc2)CC1 [Example 47, Ethyl 4-[2-({4-[(4-hydroxyphenyl)thio]butanoyl}methylamino)methylphenyl]-piperazine-1-carboxylate] | < 5 | < 5
18 | CC(C)Oc1ccccc1CN(C)C(=O)CCCSc1ccc(F)cc1 [Example 50, 4-[(4-Fluorophenyl)thio]-N-(2-isopropoxybenzyl)-N-methylbutanamide] | < 5 | < 5
19 | CN(Cc1ccccc1N1CCN(CCN2CCOCC2)CC1)C(=O)CCCSc1ccc(O)cc1 [Example 53, 4-[(4-Hydroxyphenyl)thio]-N-methyl-N-{2-[4-(2-morpholin-4-ylethyl)piperazin-1-yl]benzyl}butanamide] | < 5 | < 5
20 | COc1ccccc1CN(C)C(=O)CCCC(=O)c1ccc(F)cc1 [Example 56, 5-(4-Fluorophenyl)-N-(2-methoxybenzyl)-N-methyl-5-oxopentanamide] | < 5 | < 5
21 | CC(C)Oc1ccccc1CN(C)C(=O)CCCCc1ccc(O)cc1 [Example 59, 5-(4-Hydroxyphenyl)-N-(2-isopropoxybenzyl)-N-methylpentanamide] | < 5 | < 5
22 | COCc1ccccc1CN(C)C(=O)CCCSc1ccc(O)cc1 [Example 65, 4-[(4-Hydroxyphenyl)thio]-N-[2-(methoxymethyl)benzyl]-N-methylbutanamide] | < 5 | < 5
23 | COc1c(C)cccc1CN(C)C(=O)CCCSc1ccc(O)cc1 [Example 69, 4-[(4-Hydroxyphenyl)thio]-N-(2-methoxy-3-methylbenzyl)-N-methylbutanamide] | < 5 | < 5
24 | CN(Cc1ccccc1N1CCN(CCO)CC1)C(=O)CCCSc1ccc(O)cc1 [Example 73, N-{2-[4-(2-hydroxyethyl)piperazin-1-yl]benzyl}-4-[(4-hydroxyphenyl)thio]-N-methylbutanamide] | < 5 | < 5
25 | COc1c(Cl)cc(Cl)cc1CN(C)C(=O)CCCSc1ccc(O)cc1 [Example 74, N-(3,5-Dichloro-2-methoxybenzyl)-4-[(4-hydroxyphenyl)thio]-N-methylbutanamide] | < 5 | < 5
26 | COc1cc(C)ccc1CN(C)C(=O)CCCSc1ccc(O)cc1 [Example 75, 4-[(4-Hydroxyphenyl)thio]-N-(2-methoxy-4-methylbenzyl)-N-methylbutanamide] | < 5 | < 5
27 | CN(Cc1ccccc1N1CCN(c2ccc(C(F)(F)F)cn2)CC1)C(=O)CCCNCc1ccc(F)cc1 [Example 80, 4-[(4-Fluorophenyl)methylamino]-N-methyl-N-(2-{4-[5-(trifluoromethyl)pyridin-2-yl]piperazin-1-yl}benzyl)butanamide] | < 5 | < 5
28 | COc1ccc(SCCCC(=O)N(C)Cc2cc(F)ccc2OC)cc1 [Example 87, N-(5-Fluoro-2-methoxybenzyl)-4-[(4-methoxyphenyl)thio]-N-methylbutanamide] | < 5 | < 5
29 | C=CCOc1ccccc1CN(C)C(=O)CCCSc1ccc(F)cc1 [Example 90, N-[2-(Allyloxy)benzyl]-4-[(4-fluorophenyl)thio]-N-methylbutanamide] | < 5 | < 5
30 | COc1ccc(Br)cc1CN(C)C(=O)CCCSc1ccc(F)cc1 [Example 92, N-(5-Bromo-2-methoxybenzyl)-4-[(4-fluorophenyl)thio]-N-methylbutanamide] | < 5 | < 5
